According to patent publication US20250360214A1, “NON-TOXIC PHOTOSENSITIZER COMPOSITION AND TWO-COMPONENT TYPE PHOTOSENSITIZER COMPOSITION COMPRISING THE SAME” (priority 2024, published 2025):
Where a name gives a salt, the structure may show the parent alone.

How the values were obtained:
RAW264.7 = experiment: Cytotoxicity test (MTT assay) of solvent components PEG, DMSO and HCl; format: cell-based; settings: RAW264.7, MTT assay, FIG. 1
Method: RAW264.7 (5×10^5 cells/well in 6 well plate) was used as a cell line, and 1XDMEM (supplemented with 7% FBS and 1% antibiotics) medium (Thermo fisher scientific, 11995-065) was used.
Raw264.7 cells, which may be animal model cells, were seeded into 6 well plates containing 2 mL of DMEM medium to have an initial cell number of 5×10^5 cells/well, and then cultured in a CO2 incubator at 37° C. for 1 day under CO2 conditions. After 1 day of culture, solvent composition samples were added and cultured for an additional 2 days under the same conditions, respectively. After that, MTT assay was performed to confirm cytotoxicity.
In this case, the MTT assay method using an MTT assay kit (EZ-CYTOX-company, Dogenbio-model number: EZ-500) first prepared 5×10^5/well (total vol. 2 ml) in a 6-well plate for seeding, and then cultured for 24 h under 37° C., 5% CO2 conditions. A blank (only media) without cells was also prepared at the same time. An experimental material was treated according to conditions, and then cultured and reacted for 24 h under 37° C./5% CO2 conditions. Additionally, 200 μL Ez-cytox ( 1/10) was added to each of the wells, and reacted for 1 h. The wells were shaken gently before measuring absorbance, 200 μL thereof was then transferred to a 96-well plate, the absorbance was measured at a wavelength of 450 nm, and a viability rate was calculated according to the following equation (1).

[1] = background statement; cited from earlier work

Molecule | concentration at which no toxicity was observed (RAW264.7) | water solubility [1]
C[S+](C)[O-] [DMSO, dimethylsulfoxide] | ≤ 2 vol % | –
Cl [HCl, hydrochloric acid] | ≤ 10 mN | –
polyethylene glycol [PEG] | ≤ 3 vol % | –
3-[(3, 5-dimethyl-1H-pyrazole-4-yl)methyl]-3-devinylpyropheophorbide-a methyl ester [MPP100] | – | extremely low water solubility
